Data on 2 compounds can be found in US6087337A, “Method for treating benign and malignant proliferative skin disease” (Biomeasure Inc., priority 1993, dated 2000).

Test [1] concerns insulin, glucagon, and growth hormone release. Conditions: times more potent than naturally occurring somatostatin; cited from earlier work.
For test [2], the system named is B16-F10 melanoma. The experiment in a line: Response of intradermally implanted B16-F10 melanoma xenografts to topically applied Somatuline BIM-23014C. The class given is in vivo, BALB/c derived athymic nude female mice. Here is the method: Response of Intradermally Implanted B16-F10 Melanoma Xenografts to Topically Applied Somatuline BIM-23014C
Eighteen BALB/c derived athymic nude female mice were implanted intradermally (ID), on the right flank, with a 0.02 to 0.05 ml suspension of in vitro propagated B16-F10 melanoma cells suspended in a normal saline solution. Implantation was done with a 23 gauge needle attached to a 1.0 ml syringe on day 0. Such an intradermal implant of the murine B16-F10 melanoma is essentially orthotopic and gives rise to an extremely fast growing tumor. By day 2, flat melanotic growths were evident at the injection site. The lesions resembled in situ melanomas.
Somatuline (D-β-Nal-Cys-Tyr-D-Trp-Lys-Val-Cys-Thr-NH2, available from Biomeasure, Inc. under the product code BIM-23014C) was added to a 50% DMSO in saline solution at a concentration of 10 mgs/ml. After wiping the skin with a gauze pad wet with isopropyl alcohol, a drop (approximately 0.05 ml) of the Somatuline solution was applied to the skin surface of the mice over the melanotic lesion. The solution was rubbed into the skin for approximately 1 minute with a latex gloved (Baxter Scientific Products/Flexam) finger. Well over half of the drop of Somatuline was not absorbed and was lost after the rubbing-in procedure. The controls were treated identically with 50% DMSO in saline solution without any somatostatin analog. Topical treatments were applied twice daily for 11 days beginning on day 3 post implantation.

In the case of cyclo(N-Me-Ala-Tyr-D-Trp-Lys-Val-Phe), in test [1], the “potency relative to naturally occurring somatostatin for the inhibition of insulin, glucagon, and growth hormone release” value is given as 50-100 times.
`CC(C)[C@@H]1NC(=O)[C@H](CCCCN)NC(=O)[C@@H](Cc2c[nH]c3ccccc23)NC(=O)[C@H](Cc2ccc(O)cc2)NC(=O)[C@@H](NC(=O)[C@H](N)Cc2ccc3ccccc3c2)CSSC[C@@H](C(=O)N[C@H](C(N)=O)[C@@H](C)O)NC1=O` [BIM-23014C, D-β-Nal-Cys-Tyr-D-Trp-Lys-Val-Cys-Thr-NH2]: in test [2] (0.05 ml topical of DMSO/Saline vehicle containing 10 mg/ml, b.i.d., q.d. 3-14, intradermal B16-F10 implant in nude mice, day 12), the “Tumor Wt. (mgs) Day 12” value is reported as 185.9 ± 47 mgs. The “growth of the melanotic lesion (tumor growth curves FIG. 1, photographs FIG. 2, days 4, 7, 11)” value in test [2] (topical Somatuline solution 10 mgs/ml in 50% DMSO in saline, twice daily, compared to control mice) is “clear growth inhibition”. For the same compound, in test [2] (tumor weight day 12, treated vs DMSO/Saline vehicle control, 0.05 ml topical, 10 mg/ml, b.i.d., q.d. 3-14), the “% T/C” value was determined as 35%.
